Assay [1] has as its system Thrombocyte. As to the kind of experiment: Thrombocyte shape change. Type of assay: cell-based. On the procedure: (§1) The pharmacological comparison tests, which were conducted with the compounds from examples 1 and 4 in comparison with 6-oxo-PGE1, are summarized in the following table.
In assay [2] the test system is Thrombocyte. As to the kind of experiment: Thrombocyte aggregation inhibition. Type of assay: cell-based. On the procedure:
as §1

For assay [3], the system named is Stomach (rats, trauma with ethanol). As to the kind of experiment: Cytoprotection, stomach (rats, trauma with ethanol). Type of assay: in vivo. Conditions: 10 micrograms/kg. As for the experimental part:
as §1

As to `CC#CCC(C)[C@H](O)/C=C/[C@H]1[C@H](O)CC(=O)[C@@H]1CC(=O)CCCCC(=O)O` (mixture of isomers) [Example 1, (13E)-(11R,15S,16RS)-6,9-Di-oxo-11,15-dihydroxy-16-methyl-18,18,19,19-tetradehydro-13-prostenoic acid], the IC50 was determined as 10 nM in assay [1] and 1.7 nM in assay [2].

For the molecule `CCC#CC[C@H](C)[C@H](O)C#C[C@H]1[C@H](O)CC(=O)[C@@H]1CC(=O)CCCCC(=O)O` [Example 4, (11R,15S,16S)-6,9-di-oxo-11,15-dihydroxy-16,20-dimethyl-13,14,18,18,19,19-hexadehydroxy-13-prostenoic acid], the IC50 in assay [1] came out at 1 nM; in assay [2], 0.09 nM.

With `CCCCC[C@H](O)/C=C/[C@H]1[C@H](O)CC(=O)[C@@H]1CC(=O)CCCCC(=O)O` [Example 6oxoPGE1, reference compound], in assay [3], the “Cytoprotection, stomach: inhibition” value is given as 52%. The midpoint of inhibition in assay [2], the IC50, lay at 7 nM.

Values taken from patent publication US5023273A, “6-oxoprostaglandin E derivatives, process for their production and their pharmaceutical use” (Schering Aktiengesellschaft, priority 1987, dated 1991).
